Measurements from the NIST ThermoML archive (doi:10.1021/je3001377).
Numbers after ± are expanded uncertainties.

Settings: 298.15 K; 101.33 kPa; Liquid; Cone and plate viscometry

| viscosity | SMILES |
| --- | --- |
| 31.9 ± 2.4 mPa·s | CCCCn1cc[n+](CCCC)c1.CS(=O)(=O)[O-] [1,3-dibutyl-1H-imidazolium methanesulfonate] |
| 32.9 ± 1.1 mPa·s | CS(=O)(=O)[O-].Cn1cc[n+](C)c1 [1,3-dimethyl-1H-imidazolium methanesulfonate] |
| 111 ± 14 mPa·s | CCCCn1cc[n+](C)c1.CS(=O)(=O)[O-] [1-butyl-3-methylimidazolium methanesulfonate] |
| 70.5 ± 2.7 mPa·s | CCn1cc[n+](C)c1.CS(=O)(=O)[O-] [1-ethyl-3-methylimidazolium methanesulfonate] |
